Measurements as given in patent publication US8273754B2, “Substituted 1H-pyrazolo[3,4-D]pyrimidine-6-amine compounds” (ArQule, Inc., priority 2008, dated 2012).
Read-outs that look alike come from different tables or passages of the source.

System: cancer cells
Assay: MTS cell growth inhibition assay (72 hours)
Assay type: cell-based
In short: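 Growth inhibition read as formazan absorbance at 492 nm after 4 h MTS/PMS, following 72 h compound exposure at 37 °C in 1% FBS DMEM (cells pre-seeded 18 h). IC50 = 50% absorbance reduction; inhibition graded in bands.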

[1] = Homo sapiens, DLD-1, 72 h, DLD-1 cells, read-out: DLD-1 MTS 72 hr at 10 μM
[2] = Homo sapiens, KATO III, 72 h, KATO III cells, read-out: KATO III MTS 72 hr at 10 μM
[3] = Homo sapiens, MDA-MB-231, 72 h, MDA-MB-231 cells, read-out: MDA-MB-231 MTS 72 hr at 10 μM
[4] = Homo sapiens, NCI-H1299, 72 h, NCI-H1299 cells, read-out: NCI-H1299 MTS 72 hr at 10 μM
[5] = PaCa-2, 72 h, PACA-2 cells, read-out: PACA-2 MTS 72 hr at 10 μM

Compound | inhibition at 10 µM [1] [%] | inhibition at 10 µM [2] [%] | inhibition at 10 µM [3] [%] | inhibition at 10 µM [4] [%] | inhibition at 10 µM [5] [%]
Nc1nc(NC2Cc3ccccc3N(C(=O)CCc3ccccc3)C2)c2cn[nH]c2n1 (centres unmarked) [Compound 102, 1-(3-(6-amino-1H-pyrazolo[3,4-d]pyrimidin-4-ylamino)-3,4-dihydroquinolin-1(2H)-yl)-3-phenylpropan-1-one] | < 50 | < 50 | < 50 | < 50 | < 50
Cc1cccc(NC(=O)Nc2ccc(S(=O)(=O)N3CC(Nc4nc(N)nc5[nH]ncc45)Cc4ccccc43)cc2)c1 (centres unmarked) [Compound 195, 1-[4-({3-[(6-amino-1H-pyrazolo[3,4-d]pyrimidin-4-yl)amino]-3,4-dihydroquinolin-1(2H)-yl}sulfonyl)phenyl]-3-(3-methylphenyl)urea] | > 79 | > 79 | > 79 | < 50 | > 79
CC(C)c1cccc(C(C)C)c1NC(=O)N1CC(Nc2nc(N)nc3[nH]ncc23)Cc2ccccc21 (centres unmarked) [Compound 112, 3-(6-amino-1H-pyrazolo[3,4-d]pyrimidin-4-ylamino)-N-(2,6-diisopropylphenyl)-3,4-dihydroquinoline-1(2H)-carboxamide] | < 50 | < 50 | < 50 | < 50 | < 50
Nc1nc(NC2CCN(S(=O)(=O)c3cccc4c(Cl)cccc34)c3ccccc3C2)c2cn[nH]c2n1 (centres unmarked) [Compound 187, N4-{1-[(5-chloro-1-naphthyl)sulfonyl]-2,3,4,5-tetrahydro-1H-1-benzazepin-4-yl}-1H-pyrazolo[3,4-d]pyrimidine-4,6-diamine] | 50 to 79 | 50 to 79 | < 50 | < 50 | 50 to 79
Cc1ccccc1-n1ncc(CN2CC(Nc3nc(N)nc4[nH]ncc34)Cc3ccccc32)c1C (centres unmarked) [Compound 161, N4-(1-{[5-methyl-1-(2-methylphenyl)-1H-pyrazol-4-yl]methyl}-1,2,3,4-tetrahydroquinolin-3-yl)-1H-pyrazolo[3,4-d]pyrimidine-4,6-diamine] | < 50 | < 50 | < 50 | < 50 | < 50
Nc1nc(NC2Cc3ccccc3N(S(=O)(=O)c3ccsc3)C2)c2cn[nH]c2n1 (centres unmarked) [Compound 67, N4-(1-(thiophen-3-ylsulfonyl)-1,2,3,4-tetrahydroquinolin-3-yl)-1H-pyrazolo[3,4-d]pyrimidine-4,6-diamine] | < 50 | < 50 | < 50 | < 50 | < 50
Nc1nc(NC2CCN(S(=O)(=O)c3ccc(F)cc3)c3ccccc3C2)c2cn[nH]c2n1 (centres unmarked) [Compound 183, N4-{1-[(4-fluorophenyl)sulfonyl]-2,3,4,5-tetrahydro-1H-1-benzazepin-4-yl}-1H-pyrazolo[3,4-d]pyrimidine-4,6-diamine] | < 50 | < 50 | < 50 | < 50 | < 50
Nc1nc(NC2Cc3ccccc3N(C(=O)c3cc(F)cc(F)c3F)C2)c2cn[nH]c2n1 (centres unmarked) [Compound 92, (3-(6-amino-1H-pyrazolo[3,4-d]pyrimidin-4-ylamino)-3,4-dihydroquinolin-1(2H)-yl)(2,3,5-trifluorophenyl)methanone] | > 79 | > 79 | > 79 | 50 to 79 | > 79
Nc1nc(NC2Cc3ccccc3N(S(=O)(=O)c3cccc(OC(F)(F)F)c3)C2)c2cn[nH]c2n1 (centres unmarked) [Compound 70, N4-(1-(3-(trifluoromethoxy)phenylsulfonyl)-1,2,3,4-tetrahydroquinolin-3-yl)-1H-pyrazolo[3,4-d]pyrimidine-4,6-diamine] | < 50 | 50 to 79 | < 50 | < 50 | < 50
Nc1nc(NC2Cc3ccccc3N(C(=O)C3CCCCC3)C2)c2cn[nH]c2n1 (centres unmarked) [Compound 84, (3-(6-amino-1H-pyrazolo[3,4-d]pyrimidin-4-ylamino)-3,4-dihydroquinolin-1(2H)-yl)(cyclohexyl)methanone] | < 50 | < 50 | < 50 | < 50 | < 50
Nc1nc(NC2Cc3ccccc3N(Cc3ccc4nccnc4c3)C2)c2cn[nH]c2n1 (centres unmarked) [Compound 133, N4-[1-(quinoxalin-6-ylmethyl)-1,2,3,4-tetrahydroquinolin-3-yl]-1H-pyrazolo[3,4-d]pyrimidine-4,6-diamine] | < 50 | < 50 | < 50 | < 50 | < 50
Nc1nc(NC2CCN(S(=O)(=O)c3ccc(C(F)(F)F)cc3)c3ccccc3C2)c2cn[nH]c2n1 (centres unmarked) [Compound 186, N4-(1-{[4-(trifluoromethyl)phenyl]sulfonyl}-2,3,4,5-tetrahydro-1H-1-benzazepin-4-yl)-1H-pyrazolo[3,4-d]pyrimidine-4,6-diamine] | < 50 | < 50 | < 50 | < 50 | < 50
Nc1nc(NC2CCN(S(=O)(=O)c3cccc(F)c3)c3ccccc3C2)c2cn[nH]c2n1 (centres unmarked) [Compound 169, N4-{1-[(3-fluorophenyl)sulfonyl]-2,3,4,5-tetrahydro-1H-1-benzazepin-4-yl}-1H-pyrazolo[3,4-d]pyrimidine-4,6-diamine] | < 50 | < 50 | < 50 | < 50 | < 50
Nc1nc(NC2Cc3ccccc3N(S(=O)(=O)c3cccc(NC(=O)Nc4cccc(C(F)(F)F)c4)c3)C2)c2cn[nH]c2n1 (centres unmarked) [Compound 199, 1-[3-({3-[(6-amino-1H-pyrazolo[3,4-d]pyrimidin-4-yl)amino]-3,4-dihydroquinolin-1(2H)-yl}sulfonyl)phenyl]-3-[3-(trifluoromethyl)phenyl]urea] | > 79 | > 79 | > 79 | > 79 | > 79
Nc1nc(NC2Cc3ccccc3N(S(=O)(=O)c3ccc4ccccc4c3)C2)c2cn[nH]c2n1 (centres unmarked) [Compound 34, N4-(1-(naphthalen-2-ylsulfonyl)-1,2,3,4-tetrahydroquinolin-3-yl)-1H-pyrazolo[3,4-d]pyrimidine-4,6-diamine] | < 50 | < 50 | < 50 | < 50 | < 50
COc1ccc(F)c(CN2CC(Nc3nc(N)nc4[nH]ncc34)Cc3ccccc32)c1 (centres unmarked) [Compound 142, N4-[1-(2-fluoro-5-methoxybenzyl)-1,2,3,4-tetrahydroquinolin-3-yl]-1H-pyrazolo[3,4-d]pyrimidine-4,6-diamine] | < 50 | 50 to 79 | < 50 | < 50 | > 79
COc1ccc(OC)c(CC(=O)N2CC(Nc3nc(N)nc4[nH]ncc34)Cc3ccccc32)c1 (centres unmarked) [Compound 105, 1-(3-(6-amino-1H-pyrazolo[3,4-d]pyrimidin-4-ylamino)-3,4-dihydroquinolin-1(2H)-yl)-2-(2,5-dimethoxyphenyl)ethanone] | < 50 | < 50 | < 50 | < 50 | < 50
Nc1nc(NC2Cc3ccccc3N(S(=O)(=O)c3ccc(C(F)(F)F)cc3)C2)c2cn[nH]c2n1 (centres unmarked) [Compound 44, N4-(1-(4-(trifluoromethyl)phenylsulfonyl)-1,2,3,4-tetrahydroquinolin-3-yl)-1H-pyrazolo[3,4-d]pyrimidine-4,6-diamine] | < 50 | < 50 | < 50 | < 50 | < 50
Nc1nc(NC2Cc3ccccc3N(S(=O)(=O)c3cc(Cl)cc(Cl)c3)C2)c2cn[nH]c2n1 (centres unmarked) [Compound 36, N4-(1-(3,5-dichlorophenylsulfonyl)-1,2,3,4-tetrahydroquinolin-3-yl)-1H-pyrazolo[3,4-d]pyrimidine-4,6-diamine] | < 50 | 50 to 79 | < 50 | < 50 | < 50
Nc1nc(NC2Cc3ccccc3N(C(=O)NCc3ccc(F)cc3)C2)c2cn[nH]c2n1 (centres unmarked) [Compound 115, 3-(6-amino-1H-pyrazolo[3,4-d]pyrimidin-4-ylamino)-N-(4-fluorobenzyl)-3,4-dihydroquinoline-1(2H)-carboxamide] | < 50 | < 50 | < 50 | < 50 | < 50
CC(C)(C)CC(=O)N1CC(Nc2nc(N)nc3[nH]ncc23)Cc2ccccc21 (centres unmarked) [Compound 94, 1-(3-(6-amino-1H-pyrazolo[3,4-d]pyrimidin-4-ylamino)-3,4-dihydroquinolin-1(2H)-yl)-3,3-dimethylbutan-1-one] | < 50 | < 50 | < 50 | < 50 | < 50
Nc1nc(NC2Cc3ccccc3N(C(=O)c3ccccc3Br)C2)c2cn[nH]c2n1 (centres unmarked) [Compound 81, (3-(6-amino-1H-pyrazolo[3,4-d]pyrimidin-4-ylamino)-3,4-dihydroquinolin-1(2H)-yl)(2-bromophenyl)methanone] | 50 to 79 | > 79 | > 79 | < 50 | 50 to 79
